Source: patent US4866066A, “Thiomethylpyridine derivatives and their use for eliciting a bronchosecretolytic or mucolytic response” (Ludwig Heumann & Co. GmbH, priority 1982, dated 1989)
Structures can show the parent of a compound that is named as a salt. Where two headings read alike, the source gives them in different places.

Experiments:
[1] = system: bronchial mucus; assay: Mucosecretolytic activity in dogs: viscosity of bronchial mucus after i.v. administration; assay type: in vivo, mongrel dogs; settings: for Viscosity, 1 hour after administration: 1 hour after 10 mg/kg i.v.; for Viscosity, 1 hour after administration / Viscosity, initial value: mucus 1% w/v in 0.1M tris-buffer pH 7; for reduction in the viscosity of the bronchial mucus (in words): i.v., dogs, identical quantity by weight; for Viscosity, initial value: immediately before administration, 10 mg/kg i.v., baseline
Protocol: Bronchial mucus was removed by means of a bronchoscope from anaesthetized mongrel dogs immediately before and 1 hour after intravenous administration of the test substances and taken up in phosphate buffer. After dialyzation and freeze-drying, the mucus samples were taken up in 0.1M tris-buffer (pH 7) (final concentration 1% w/v). Viscosity was measured by means of a rotary viscosimeter (as manufactured by Contraves, Stuttgart).

[2] = system: tracheal secretion of phenol red; assay: Secretostimulating activity: tracheal secretion of phenol red after oral administration to non-anaesthetized mice; assay type: in vivo; settings: for ED50: Table I, non-anaesthetized mice, promotion of tracheal phenol red secretion, calculated from regression curves
Protocol: The increase in the tracheal secretion of phenol red is a measure of bronchosecretolytic activity. The relevant activity of the test substances was studied after oral administration to non-anaesthetized mice. The ED50 -values indicated in Table I were calculated using the regression curves.

[3] = Acute oral toxicity in mice; settings: mouse, in vivo, p.o.
Text: The compounds according to the invention show low oral toxicity in acute tests.

[4] = system: mice; settings: p.o., under identical conditions; cited from earlier work

Which “Viscosity, 1 hour after administration” value [1] does the source give for `c1cnc(SCc2cccnc2)nc1` [Example 1, 2-(pyridyl-3-methylthio)-pyrimidine hydrochloride] here?
Its value is 1.2 mPa × s.

What about the “reduction in the viscosity of the bronchial mucus (in words)” value [1] of the same molecule?
Its value is “even more distinct reduction in the viscosity of the bronchial mucus”.

What about the “Viscosity, initial value” [1] of the same molecule?
The value was 3.9 mPa × s.

And the ED50 ([2]; Mus musculus, read-out: ED50)?
Its ED50 is 1.5 mg/kg.

And the “activity in promoting tracheal secretion of phenol red (in words)” value ([2]; mice, among compounds of Table I)?
Its value is “strongest activity”.

And the “effect in promoting the secretion of phenol red relative to Ambroxol” value ([2]; mice, times stronger than Ambroxol)?
Its value is “approximately 160 times”.

And the LD50 [3]?
The LD50 was 1160 mg/kg.

For `c1ccc(SCc2cccnc2)nc1` [Example 5, 2-(pyridyl-3-methylthio)-pyridine dihydrochloride], which ED50 ([2]; Mus musculus, read-out: ED50) is on record?
The ED50 was 2.1 mg/kg.

With `Cc1cc(C)nc(SCc2cccnc2)n1` [Example 4, 2-(pyridyl-3-methylthio)-4,6-dimethyl-pyrimidine hydrochloride] as the molecule, how does the ED50 ([2]; Mus musculus, read-out: ED50) read?
Its ED50 is 12 mg/kg.

For `c1cncc(CSc2nc3ccccc3o2)c1` [Example 7], which ED50 ([2]; Mus musculus, read-out: ED50) is on record?
Its ED50 is 15 mg/kg.

For `Cc1ccnc(SCc2cccnc2)n1` [Example 3, 2-(pyridyl-3-methylthio)-4-methyl-pyrimidine hydrochloride], which ED50 ([2]; Mus musculus, read-out: ED50) is on record?
Its ED50 is 10 mg/kg.

Which ED50 ([2]; Mus musculus, read-out: ED50) does the source give for `c1ccc(CSc2ccccn2)nc1` [Example 6, 2-(pyridyl-2-methylthio)-pyridine dihydrochloride] here?
The ED50 was 6.3 mg/kg.

For `c1ccc(CSc2nc3ccccc3o2)nc1` [Example 9, 2-(methylthio-2-pyridyl)-benzoxazole oxalate], which ED50 ([2]; Mus musculus, read-out: ED50) is on record?
Its ED50 is 45 mg/kg.

Which ED50 ([2]; Mus musculus, read-out: ED50) does the source give for `Cc1ccc2nc(SCc3cccnc3)oc2c1` [Example 8, hydrochloride] here?
Its ED50 is 15 mg/kg.

For `Nc1c(Br)cc(Br)cc1CN[C@H]1CC[C@H](O)CC1` [Ambroxol, trans-4-(2-amino-3,5-dibromobenzyl)-aminocyclohexanol, reference compound], which “toxicity compared with 2-(pyridyl-3-methylthio)-pyrimidine hydrochloride (in words)” value [4] is on record?
The value was “slidingly less toxic”.

What about the “Viscosity, 1 hour after administration” value [1] of the same molecule?
Its value is 2.3 mPa × s.

And the “reduction in the viscosity of the bronchial mucus (in words)” value [1]?
Its value is “distinct reduction in the viscosity of the bronchial mucus”.

What about the “Viscosity, initial value” [1] of the same molecule?
Its value is 3.8 mPa × s.

What about the ED50 ([2]; Mus musculus, read-out: ED50) of the same molecule?
The ED50 was 250 mg/kg.

For “2-(methylthio-3-pyridyl)-oxazolo(4,5-c) pyridine dihydrochloride [Example 10]”, which ED50 [2] is on record?
The ED50 was 12 mg/kg.

For `c1ccc(CSc2ncccn2)nc1` [Example 2, 2-(pyridyl-2-methylthio)-pyrimidine hydrochloride], which ED50 ([2]; Mus musculus, read-out: ED50) is on record?
Its ED50 is 400 mg/kg.
